Results: PMC11284788, “NN1213 – A Potent, Long-Acting, and Selective Analog of Human Amylin” (Journal of Medicinal Chemistry, 2024)

Tests used:
Pharmacokinetics in rats = conditions: male, Sprague-Dawley, rat, plasma, sc, 5 nmol/kg
Method: (§1) Blood samples were collected at fixed time points postdose to determine full PK profiles. Plasma samples were analyzed by ELISA. Plasma concentration–time profiles were analyzed by noncompartmental analysis.
(§2) Pharmacokinetic Evaluation. Rats: Male Sprague-Dawley rats (Taconic, Europe; body weight
(§3) approximately 400 g) were group-housed under controlled temperature conditions (20 °C ± 2 °C).
(§4) Blood was collected from the sublingual vein and rats were acclimated to handling on three separate
occasions prior to blood collection.
(§5) the tail vein of five rats. Sc injections were performed in the neck of another group of five rats. The
dosing volume was 2 mL/kg.
(§6) collected into test tubes containing EDTA for stabilization and kept on ice until centrifugation. Each
(§7) blood sample was 100 µL. Plasma was separated from whole blood by centrifugation and was stored at
–20 °C or lower until analysis.

hAMY3R = biological target: T1, hAMY3R (Homo sapiens, UniProt O60896+P30988); assay: Species-specific cAMP assay, hAMY3R; conditions: ratio of cAMP EC50 values, human receptors
T1 sequence (P30988 25-474): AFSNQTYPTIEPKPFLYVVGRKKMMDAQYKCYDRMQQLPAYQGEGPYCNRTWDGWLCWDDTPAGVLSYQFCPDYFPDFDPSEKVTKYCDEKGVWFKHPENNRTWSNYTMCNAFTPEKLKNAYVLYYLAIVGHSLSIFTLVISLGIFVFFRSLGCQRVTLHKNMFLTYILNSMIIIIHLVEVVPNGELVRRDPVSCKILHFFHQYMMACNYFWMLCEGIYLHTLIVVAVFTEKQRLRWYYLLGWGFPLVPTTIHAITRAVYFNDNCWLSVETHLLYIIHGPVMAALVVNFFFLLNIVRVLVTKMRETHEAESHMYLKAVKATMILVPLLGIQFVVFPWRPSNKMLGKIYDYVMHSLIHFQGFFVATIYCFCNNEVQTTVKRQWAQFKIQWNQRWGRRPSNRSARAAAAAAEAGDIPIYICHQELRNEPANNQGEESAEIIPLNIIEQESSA
T1 sequence (O60896 24-148 partner): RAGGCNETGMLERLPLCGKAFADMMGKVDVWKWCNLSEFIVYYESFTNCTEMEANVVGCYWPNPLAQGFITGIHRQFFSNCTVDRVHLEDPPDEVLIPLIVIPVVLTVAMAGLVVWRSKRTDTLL

in vivo [1] = conditions: male, Göttingen, minipig, iv
cAMY1R = assay: Species-specific cAMP assay, cAMY1R; conditions: for Ratio CTR/AMY1R (canine, functional): ratio of cAMP EC50 values, canine receptors
in vivo [2] = conditions: male, beagle, dog, iv
rAMY1R = biological target: T2, rAMY1R (Rattus norvegicus, UniProt P32214+Q9JJ74); assay: Whole-cell competition binding, rAMY1R; design: expressed in transfected cells; host or cells: BHK tk-ts 13 cells, transient, FuGENE 6; conditions: IC50 for the CTR divided by that of the AMYR, rat receptors
T2 sequence (P32214 25-516): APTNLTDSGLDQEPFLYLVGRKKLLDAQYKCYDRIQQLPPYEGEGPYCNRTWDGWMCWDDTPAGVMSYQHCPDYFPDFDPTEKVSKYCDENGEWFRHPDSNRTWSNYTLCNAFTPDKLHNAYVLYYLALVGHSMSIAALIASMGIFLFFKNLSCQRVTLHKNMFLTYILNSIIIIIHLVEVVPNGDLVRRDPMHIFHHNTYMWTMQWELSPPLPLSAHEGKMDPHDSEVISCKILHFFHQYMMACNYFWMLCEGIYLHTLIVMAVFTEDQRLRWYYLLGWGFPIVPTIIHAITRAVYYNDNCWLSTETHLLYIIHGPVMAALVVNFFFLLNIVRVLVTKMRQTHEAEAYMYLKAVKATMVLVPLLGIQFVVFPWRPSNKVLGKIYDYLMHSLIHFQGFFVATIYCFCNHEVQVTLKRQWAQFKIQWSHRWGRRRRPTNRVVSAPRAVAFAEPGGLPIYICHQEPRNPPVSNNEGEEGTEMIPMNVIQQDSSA
T2 sequence (Q9JJ74 27-148 partner): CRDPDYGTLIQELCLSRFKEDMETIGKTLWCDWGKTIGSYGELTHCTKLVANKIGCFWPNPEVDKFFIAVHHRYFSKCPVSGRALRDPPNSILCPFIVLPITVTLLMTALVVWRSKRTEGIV

rAMY3R = biological target: T3, rAMY3R (Rattus norvegicus, UniProt P32214+Q9JJ73); assay: Whole-cell competition binding, rAMY3R; design: expressed in transfected cells; host or cells: BHK tk-ts 13, transient co-transfection (FuGENE 6); conditions: IC50 for the CTR divided by that of the AMYR, rat receptors
T3 sequence (P32214 25-479 isoform P32214-2 limits assumed): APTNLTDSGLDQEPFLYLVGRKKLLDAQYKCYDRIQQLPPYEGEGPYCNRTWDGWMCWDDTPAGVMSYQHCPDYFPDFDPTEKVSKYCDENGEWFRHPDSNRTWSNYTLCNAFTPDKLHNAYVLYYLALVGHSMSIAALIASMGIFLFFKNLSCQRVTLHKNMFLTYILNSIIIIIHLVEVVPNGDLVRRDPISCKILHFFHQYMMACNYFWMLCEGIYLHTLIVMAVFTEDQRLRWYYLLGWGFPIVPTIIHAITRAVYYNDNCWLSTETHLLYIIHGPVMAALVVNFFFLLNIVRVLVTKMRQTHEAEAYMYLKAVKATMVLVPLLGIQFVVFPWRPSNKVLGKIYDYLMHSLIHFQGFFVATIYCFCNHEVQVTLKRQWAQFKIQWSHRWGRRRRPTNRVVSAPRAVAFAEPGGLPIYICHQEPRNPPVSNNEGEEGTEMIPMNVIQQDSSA
T3 sequence (Q9JJ73 23-147 partner): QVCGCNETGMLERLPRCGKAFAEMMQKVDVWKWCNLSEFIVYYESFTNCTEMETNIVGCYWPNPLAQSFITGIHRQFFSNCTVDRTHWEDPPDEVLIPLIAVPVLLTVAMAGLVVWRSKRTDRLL

[3] = in vivo, iv
Method: as §1
(§8) Rabbits: Female rabbits (New Zealand white, Charles River; 21–23 weeks; 2.5–3.5 kg) were group-
(§9) housed (10 per cage) in normal day–night rhythm from arrival and had free access to food and water.
(§10) The rabbits were treated against coccidiosis during their 5-week acclimation period upon arrival. Iv
(§11) dosing was performed as a bolus injection into an ear vein with a dosing volume of 0.1 mL/kg. The
(§12) dosing solution was at room temperature before injection. Venous blood sampling was performed
(§13) directly through puncture of an ear vein using a needle. A full plasma concentration–time profile was
obtained from each animal.
(§14) Blood (300 µL) was collected directly into test
(§15) tubes containing EDTA buffer (Microvette CB 300 K2E). Samples were kept on wet ice until
(§16) centrifugation (10 min, 4 °C, 3000 rpm). Plasma (100 µL) was transferred immediately to Micronic
(§17) tubes and kept at –20 °C until analysis.
(§18) Plasma analysis: Plasma samples were analyzed by a commercially available kit (Millipore, Human
Amylin ELISA, cat. #EZHA-52-K). […]
(§19) was applied and the plate was read on a fluorescent reader with an excitation/emission wavelength of
(§20) samples. The lower limit of quantification (LLOQ) was 100–500 pM.

cAMY3R = assay: Whole-cell competition binding, cAMY3R; conditions: IC50 for the CTR divided by that of the AMYR, canine receptors
hAMY1R = hAMY1R (Homo sapiens, UniProt O60894+P30988); assay: Species-specific cAMP assay, hAMY1R; conditions: ratio of cAMP EC50 values, human receptors
hAMY1R, sequence (O60894 27-148 partner, one chain of several): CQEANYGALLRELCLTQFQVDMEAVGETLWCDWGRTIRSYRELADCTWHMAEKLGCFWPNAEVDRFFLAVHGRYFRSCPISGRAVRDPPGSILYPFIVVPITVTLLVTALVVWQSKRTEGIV

in vivo [4] = conditions: female, New Zealand white, rabbit, iv
Method: as §1, §8, §9, §10, §11, §12, §13
obtained from each animal.
as §14, §15, §16, §17, §18
Amylin ELISA, cat. #EZHA-52-K). […]
as §19, §20

in vivo [5] = conditions: male, Sprague-Dawley, rat, iv
Method: as §1, §2, §3, §4
occasions prior to blood collection.
as §5
dosing volume was 2 mL/kg.
as §6, §7
–20 °C or lower until analysis.

CC[C@H](C)[C@H](NC(=O)[C@H](C)NC(=O)CNC(=O)[C@H](Cc1ccccc1)NC(=O)[C@H](CC(N)=O)NC(=O)[C@@H]1CCCN1C(=O)[C@H](CO)NC(=O)[C@H](CO)NC(=O)[C@H](Cc1c[nH]cn1)NC(=O)[C@H](CCCNC(=N)N)NC(=O)[C@H](CC(C)C)NC(=O)[C@H](Cc1ccccc1)NC(=O)[C@H](CC(=O)O)NC(=O)[C@H](C)NC(=O)[C@H](CC(C)C)NC(=O)[C@H](CCCNC(=N)N)NC(=O)[C@H](CCC(N)=O)NC(=O)[C@@H](NC(=O)[C@H](C)NC(=O)[C@@H]1CSSC[C@H](NC(=O)[C@@H](N)CCCCNC(=O)CC[C@H](NC(=O)CC[C@H](NC(=O)CCCCCCCCCCCCCCCCCCC(=O)O)C(=O)O)C(=O)O)C(=O)N[C@@H](CC(N)=O)C(=O)N[C@@H]([C@@H](C)O)C(=O)N[C@@H](C)C(=O)N[C@@H]([C@@H](C)O)C(=O)N1)[C@@H](C)O)C(=O)N1CCC[C@H]1C(=O)N[C@@H](CO)C(=O)N[C@@H](CO)C(=O)N[C@H](C(=O)N[C@@H](CC(N)=O)C(=O)N[C@H](C(=O)NCC(=O)N[C@@H](CO)C(=O)N[C@@H](CCCNC(=N)N)C(=O)N[C@H](C(=O)N[C@@H](Cc1ccc(O)cc1)C(N)=O)[C@@H](C)O)C(C)C)[C@@H](C)O [NN1213]
bioavailability (Pharmacokinetics in rats): ~40%
Ratio CTR/AMY3R (human, functional) (hAMY3R): 51
half-life (in vivo [1]): 116 h
cAMY1R pEC50 (cAMY1R; cAMP HTRF, transiently transfected BHK cells, 30 min room temperature, five experiments): 9.87
Ratio CTR/AMY1R (canine, functional) (cAMY1R): 3
Ratio CTR/AMY1R (canine, functional) (cAMY1R; listed as NN1213/peptide 21): 2
half-life (in vivo [2]): 76 h
Ratio CTR/AMY1R (rat, binding) (rAMY1R): 190
Ratio CTR/AMY3R (rat, binding) (rAMY3R): 52
terminal plasma half-life (T1/2), rabbit [3]: approximately 50 h
Ratio CTR/AMY3R (canine, binding) (cAMY3R): 40
Ratio CTR/AMY1R (human, functional) (hAMY1R): 32
half-life (in vivo [4]): 49 h
half-life (in vivo [5]): 24 h
